From US20250129045A1, “SMALL MOLECULE PIM AND MTOR KINASE INHIBITOR AND METHODS OF USE THEREOF” (Arizona Board of Regents on Behalf of the University of …, priority 2022, published 2025)
“Also recorded” adds a separate entry of the source. Read-outs that look alike come from different tables or passages of the source.

Assays:
[1] = Plasma pharmacokinetics after oral dosing in mice; assay type: in vivo, mouse
Protocol: Plasma concentrations of GRG-1-34: These concentrations were determined by high performance liquid chromatography (HPLC) tandem mass spectrometry (MS). Quantification was achieved by GRG-1-34 calibration standards prepared in mouse plasma. GRG-1-34 in calibration standards or authentic samples was extracted by protein precipitation with methanol. After centrifugation, the supernatant was injected onto the HPLC-MS system. HPLC separation was achieved using a C-18 column and a gradient mobile phase of water and acetonitrile, both with 0.1% formic acid. The mass spectrometer was operated in the electrospray positive ion mode with selective reaction monitoring. The calibration curve was linear over the plasma concentration range of 2-1800 ng/ml. The pharmacokinetic analysis was performed using PKSolver 2.0 by a noncompartmental analysis. Murine gavage with GRG 1-34 was approved by the Animal Care Committee of the University of Arizona.
To examine the pharmacokinetics of this class of com-pounds GRG 1-34, one of the active isoforms, was given orally and blood was sampled from 3 mice at each time point (FIG. 21). The plasma concentration of GRG-1-34 peaked at 0.5 h after oral dosing and declined as a function of time. […] It has a large apparent volume of distribution (VZ/F) and apparent systemic clearance (CL/F), likely attributed to low systemic bioavailability (F) after oral dosing. At the maximum blood concentration of […], GRG-1-34 reached a concentration of 4 μM which in cell culture was sufficient to inhibit cell growth.

DU145 prostate cancer = DU145 prostate cancer growth (crystal violet, 7 days); assay type: cell-based; details: 7 days of growth
Protocol: Cells were plated at 1000 cells per well and 24 h later treated with GRG compounds. After 7 days of growth, tumor cells were fixed with 4% paraformaldehyde, stained with 0.5% crystal violet in methanol and lysed in SDS. The absorbance of six samples treated with each compound or DMSO control was read at 570 nm. The error bars represent the Standard Deviation of these measurements
Cell growth was measured as in FIG. 17.

[2] = tested on: PANC1 pancreatic cancer cells; assay: Growth inhibition of PANC1 pancreatic cancer cells; assay type: cell-based
Protocol: Cell growth assay: Tumor cells were seeded into 48 well plates (1000 cells/well) and treated with varied agents. The Incucyte real-time imaging system (Incucyte) was used to measure cell proliferation using a non-label cell monolayer confluence approach. The images were captured every 12 h. Graphs were generated using an integrated confluence metric as an alternative for cell numbers. At the end of the study cell growth was visualized by crystal violet staining.
Because of ease of growth, PANC1 pancreatic cancer cells were used to test the activity of derivatives of VBT-5445 (FIG. 14). […] Using a doxycycline inducible Pim kinase vector in these tumor cells, this inhibition of phosphorylation was proportional to the level of Pim in these cells (FIG. 9). […] Inhibition of mTORC1 is known to stimulate the feedback activation of mTORC2 leading to AKT phosphorylation. […] The effect of these compounds on mTORC1 and 2 was still evident in PC3-LN4 cells that contained a knockout (KO) using CRISPR/CAS9 of either TSC2 or DEPDC5 (FIG. 12, lanes 4-9). TSC2 KO activated the Rheb GTPase while DEPDC5 KO activated the RAG GTPase both of which stimulate mTORC1 activity. Thus, GRG compounds were capable of inhibiting mTORC1 activity even when this kinase was highly activated.

Pim kinase = assay: Pim substrate phosphorylation in LNCaP prostate cancer cells (Western blot); assay type: cell-based; details: serum-starved conditions
Protocol: Right: LNCaP and LNCaP stably expressed Pim1 cells were treated with DMSO and GRG-1-34 ([…]) without FBS medium for 6 h. Lysates (25 μg) were subjected to western blotting with the antibodies for P-IRS1 (S1101), IRS1, P-elF4B (S406), elF4B, P-EDC3 (S161), EDC3, Pim1, and β-Actin.
Immunoblotting: Western blots were performed as described previously. Briefly, protein lysates (30 μg) were subjected to SDS-PAGE and transferred to nitrocellulose membranes. After blocking with 5% milk in TBST buffer for 30 min at room temperature, the membranes were incubated overnight at 4° C. with the Indicated primary antibody in 3% BSA in TBST. Specific proteins were detected with the corresponding HRP conjugated secondary antibody using enhanced chemiluminescence (GE Lifesciences, Piscataway, NJ).

half-life ([1]; mouse, plasma, 62 mg/kg, oral, read-out: half-life (T1/2) (converted)): 2.08 h | Cmax ([1]; mouse, plasma, oral, dose of 62 mg/kg, read-out: average maximum plasma concentration (Cmax)): 1990 ng/mL | apparent systemic clearance (CL/F) ([1]; oral): large | maximum blood concentration ([1]; oral): 2 ng/mL | time at which the plasma concentration peaked after oral dosing ([1]; oral (gavage)): 0.5 h | blood concentration reached at the maximum, molar ([1]; oral, level sufficient in cell culture to inhibit growth): 4 µM
SMILES: O=c1c(CNCc2cc(Br)ccn2)cc2ccc(Cl)cc2n1CCOc1ccccc1 [GRG-1-34, 3-((((4-bromopyridin-2-yl)methyl)amino)methyl)-7-chloro-1-(2-phenoxyethyl) quinolin-2 (1H)-one]
DU145 prostate cancer growth (DU145 prostate cancer): Inhibition | DU145 prostate cancer growth (DU145 prostate cancer; listed as VBT 1-34): shows activity | growth inhibitory activity against PANC1 pancreatic cancer cells [2]: most active | growth inhibitory activity against PANC1 pancreatic cancer cells ([2]; listed as VBT 1-34): inhibits the growth; also recorded: shows activity | Pim kinase activity: Pim substrate phosphorylation (IRS1, elF4B, EDC3) (Pim kinase): decreased Pim substrate phosphorylation | Pim kinase activity: Pim substrate phosphorylation (IRS1, elF4B, EDC3) (Pim kinase; listed as GRG 1-34): suppresses Pim kinase activity | Pim kinase activity: Pim substrate phosphorylation (IRS1, elF4B, EDC3) (Pim kinase; listed as VBT 1-34): inhibits Pim activity
